From patent publication US8389565B2, “Glycosidase inhibitors and methods of synthesizing same” (Simon Fraser University, priority 2000, dated 2013)
Structures can show the parent of a compound that is named as a salt. Where two headings read alike, the source gives them in different places. Values belong to the compound of their own block, whether it stands above or below them.

Columns and labels:
[1] = biological target: T1, porcine pancreatic α-amylase (PPA) (Sus scrofa, UniProt P00690); assay: Inhibition of porcine pancreatic α-amylase activity towards DP17 amylose; type: biochemical
T1 construct: purchased Sigma
T1 sequence (P00690 16-511): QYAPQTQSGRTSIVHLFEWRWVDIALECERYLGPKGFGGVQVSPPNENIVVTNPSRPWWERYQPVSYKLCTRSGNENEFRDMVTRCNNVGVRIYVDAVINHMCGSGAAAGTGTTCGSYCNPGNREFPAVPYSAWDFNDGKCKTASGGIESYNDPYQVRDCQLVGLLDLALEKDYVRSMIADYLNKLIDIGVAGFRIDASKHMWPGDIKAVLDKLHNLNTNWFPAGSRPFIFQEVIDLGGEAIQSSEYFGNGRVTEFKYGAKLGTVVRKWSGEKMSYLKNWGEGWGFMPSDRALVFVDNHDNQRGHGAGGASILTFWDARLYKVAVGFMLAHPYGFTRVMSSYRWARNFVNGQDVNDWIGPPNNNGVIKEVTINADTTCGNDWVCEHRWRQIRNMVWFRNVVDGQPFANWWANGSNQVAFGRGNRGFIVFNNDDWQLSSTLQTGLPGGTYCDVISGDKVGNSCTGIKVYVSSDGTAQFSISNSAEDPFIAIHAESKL
Description: (§1) Porcine pancreatic α-amylase (PPA) and bovine serum albumin (BSA) were purchased from Sigma. Amylose EX-1 (DP17; average degree of polymerization 17) was purchased from Hayashibara Chemical Laboratories (Okayama, Japan). Recombinant barley α-amylase isozyme 1 (AMY1) was produced and purified as described.^23 An aliquot of the porcine pancreatic x-amylase (PPA) crystalline suspension (in ammonium sulfate) was dialyzed extensively against the assay buffer without BSA. The enzyme concentration was determined by aid of amino acid analysis as determined using an LKB model Alpha Plus amino acid analyzer. […] Six different final inhibitor concentrations were used in the range 1 μM-5 mM. The inhibitor was pre-incubated with enzyme for 5 min at 37° C. before addition of substrate.

[2] = biological target: T2, Human Pancreatic α-Amylase (HPA) (Homo sapiens, UniProt P04746); assay: Human pancreatic α-amylase assay, hydrolysis of 2,4-Dinitrophenyl maltotrioside; type: biochemical; settings: for Ki: n.a. = not active
T2 sequence (P04746 16-511): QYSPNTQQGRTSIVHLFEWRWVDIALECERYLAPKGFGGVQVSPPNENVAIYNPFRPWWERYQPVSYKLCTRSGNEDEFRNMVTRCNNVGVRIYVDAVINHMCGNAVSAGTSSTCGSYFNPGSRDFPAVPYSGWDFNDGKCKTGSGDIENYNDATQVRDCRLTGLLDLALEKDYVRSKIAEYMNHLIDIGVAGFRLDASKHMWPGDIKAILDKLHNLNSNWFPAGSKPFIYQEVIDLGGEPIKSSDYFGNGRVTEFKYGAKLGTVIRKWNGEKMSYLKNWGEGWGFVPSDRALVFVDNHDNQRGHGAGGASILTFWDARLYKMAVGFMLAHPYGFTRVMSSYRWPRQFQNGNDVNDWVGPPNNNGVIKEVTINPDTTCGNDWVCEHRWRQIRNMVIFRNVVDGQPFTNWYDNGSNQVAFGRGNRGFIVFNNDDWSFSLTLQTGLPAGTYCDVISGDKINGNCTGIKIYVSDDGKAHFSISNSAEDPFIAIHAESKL
Protocol: These assays were performed with purified enzyme. The ability of candidate inhibitors to inhibit the hydrolysis of 2,4-Dinitrophenyl maltotrioside was monitored by UV-visible spectroscopy of the released 2,4-dinitrophenol.

[3] = biological target: T3, glucoamylase G2 form from Aspergillus niger (Aspergillus niger, UniProt P69328); assay: Inhibition of glucoamylase G2-catalyzed hydrolysis of maltose; type: biochemical
T3 construct: purchased Novo Nordisk, Bagsvaerd, Denmark
T3 sequence (P69328 other isoform, or with tags, fused parts or gaps): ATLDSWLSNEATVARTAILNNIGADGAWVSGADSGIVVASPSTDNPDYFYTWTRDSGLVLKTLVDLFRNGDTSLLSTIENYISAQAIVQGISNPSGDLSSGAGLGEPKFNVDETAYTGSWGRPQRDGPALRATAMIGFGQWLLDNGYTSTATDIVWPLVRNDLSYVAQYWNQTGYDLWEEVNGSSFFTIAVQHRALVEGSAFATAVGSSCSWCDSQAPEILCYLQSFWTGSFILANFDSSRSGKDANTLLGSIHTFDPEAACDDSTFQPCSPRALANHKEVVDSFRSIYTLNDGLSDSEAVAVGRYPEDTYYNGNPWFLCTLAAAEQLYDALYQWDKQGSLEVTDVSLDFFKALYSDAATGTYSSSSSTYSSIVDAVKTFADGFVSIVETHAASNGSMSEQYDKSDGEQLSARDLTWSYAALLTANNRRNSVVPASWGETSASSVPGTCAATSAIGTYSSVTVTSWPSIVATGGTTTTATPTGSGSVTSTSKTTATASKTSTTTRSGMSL
Protocol: The glucoamylase G2 form from Aspergillus niger was purified from a commercial enzyme (Novo Nordisk, Bagsvaerd, Denmark) as described.^19,20 The initial rates of glucoamylase G2-catalyzed hydrolysis of maltose was tested with 1 mM maltose as substrate in 0.1 M sodium acetate pH 4.5 at 45° C. using an enzyme concentration of 7.0×10^−8 M and five inhibitor concentrations in the range 1 μm-5 mM. The effect of the inhibition on rates of substrate hydrolysis were compared for the different compounds.

[4] = biological target: T4, Recombinant barley α-amylase isozyme 1 (AMY1) (Hordeum vulgare, UniProt P00693); assay: Inhibition of barley α-amylase isozyme 1 activity towards DP17 amylose; type: biochemical
T4 construct: made in house
T4 sequence (P00693 25-438): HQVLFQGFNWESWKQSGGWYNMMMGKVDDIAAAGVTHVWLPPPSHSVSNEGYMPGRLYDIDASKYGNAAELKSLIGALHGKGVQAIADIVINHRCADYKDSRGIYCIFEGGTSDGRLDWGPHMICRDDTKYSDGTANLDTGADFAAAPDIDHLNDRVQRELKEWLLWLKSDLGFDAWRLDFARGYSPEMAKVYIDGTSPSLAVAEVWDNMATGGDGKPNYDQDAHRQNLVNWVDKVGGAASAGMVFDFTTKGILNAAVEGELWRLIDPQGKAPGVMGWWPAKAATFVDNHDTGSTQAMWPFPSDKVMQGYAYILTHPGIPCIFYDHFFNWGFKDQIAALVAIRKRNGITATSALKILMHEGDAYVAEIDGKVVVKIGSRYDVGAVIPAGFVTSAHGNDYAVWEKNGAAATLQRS
Description: as §1

[5] = biological target: Maltase Glucoamylase (MGA) (Homo sapiens, UniProt O43451); assay: MGA activity in extracts of COS cells transfected with MGA5′ (maltase subunit) construct, maltose hydrolysis, glucose oxidase colorimetric assay; type: biochemical; design: COS cells transfected with MGA5′ (maltase subunit clone 10) construct were used; expressed in transfected cells; host or cells: COS cells; settings: for Ki MGA (Human intestinal maltase glucoamylase): only the order of magnitude of activity (nM, μM, mM) or n.a. = not active
Maltase Glucoamylase (MGA), sequence (O43451 356-737 limits assumed): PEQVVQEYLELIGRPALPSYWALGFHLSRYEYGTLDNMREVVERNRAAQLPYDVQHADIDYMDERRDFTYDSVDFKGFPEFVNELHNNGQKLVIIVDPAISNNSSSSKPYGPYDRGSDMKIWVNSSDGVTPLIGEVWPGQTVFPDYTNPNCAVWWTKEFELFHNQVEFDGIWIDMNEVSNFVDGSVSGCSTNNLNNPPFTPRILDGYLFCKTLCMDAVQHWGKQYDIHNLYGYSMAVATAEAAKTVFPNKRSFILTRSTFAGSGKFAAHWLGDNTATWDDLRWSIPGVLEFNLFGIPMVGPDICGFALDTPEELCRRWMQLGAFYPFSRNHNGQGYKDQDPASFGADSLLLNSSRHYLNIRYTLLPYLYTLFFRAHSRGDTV
Protocol: In the assays, COS cells transfected with MGA5′ (maltase subunit clone 10) construct were used. Activity measurements were performed with cell extracts containing MGA. Maltose hydrolysis was monitored by measurement of the glucose released by a glucose oxidase colorimetric assay. Inhibition of this hydrolysis was measured as a reduction in OD reading.
In practice, an OD reading in the absence of the inhibitor was recorded, followed by a reading in the presence of the inhibitor. The percent reduction in OD reading upon administering a candidate inhibitor (see Table 11) was then correlated with a percent inhibition for a given concentration.

[6] = system: Sprague-Dawley rats; assay: In vivo maltose gavage in catheterized rats: plasma glucose and insulin; design: species or system rat; settings: maltose gavage 1000 mg/kg with 25 mg/kg drug; for decrease of the 90 minute insulin AUC: versus Control
Protocol: Five week old Sprague-Dawley rats were housed singly under a 12:12-h light-dark photoperiod and given free access to water and rat chow (Purina rodent chow). After one week of acclimation, chronic indwelling catheters were implanted.
Animals were anesthetized with a combination of Ketamine-Xylazine-Butorphanol (0.1 ml/100 g im). Analgesic (Butorphenol, 1 mg/kg sc) was administered following recovery from anesthesia and the following morning. Antibiotic was administered by one dose sc and in the drinking water for 4 days post-operative (Baytril, 5 mg/kg sc, Bayer, Toronto, Canada; Baytril, 50 mg/ml: 0.36 ml solution in 250 ml drinking water). A sterile catheter (Intramedic PE-50 with ˜3 cm beveled Silastic tip) was placed in the left carotid artery and the distal end of the catheter was tunneled subcutaneously, exteriorized, and anchored at the nape of the neck. The catheters were protected from chewing by a stainless steel tether connected to a swivel system which allowed free movement of the animal and easy access to the catheter by the investigator.
The animals were allowed to recover for 1 week. Experiments were performed on conscious, unrestrained animals that had been fasted overnight by removal of chow from the cage hoppers at 2100. At 0800 the following morning animals were weighed and Atropine (0.05 mg/kg sc) was administered as a […]. At baseline, animals were administered a bolus of maltose by oral gavage (1000 mg/kg body weight) with or without drug (25 mg/kg body weight for all agents). Blood samples (0.1 mL) were taken via the implanted carotid line at -15 and -5 min for the baseline and at 7, 15, 30, 60, 90, 120, 210, 300 min.
Blood samples were kept on ice in microcentrifuge tubes and then were centrifuged. The plasma was stored at −20° C. until it was assayed. Plasma volume was triple replaced with heparinized saline (10u/mL), but red blood cells were not reinfused. Plasma glucose was assayed with the glucose oxidase method (Trinder RAICHEM Division of Hemagen Diagnostics, Inc. San Diego, Calif.). Plasma insulin concentrations were measured by rat insulin ELISA (Crystal Chem INC, Downers Grove, Ill.). Six experiments were performed for each treatment (control, Blintol, Acarbose, Salacinol).
All data are presented as means±SE. The significance of changes in plasma glucose and insulin were tested by two-way repeated-measures analysis of variance and were performed with the Statistical Analysis System for Windows (version 6.3, SAS Institute, Cary, N.C.). AUCs were compared using unpaired t-tests.

[7] = system: maltase activity in biopsies with live intestinal cells; assay: Maltase activity in biopsies with live intestinal cells; type: cell-based, human; settings: 5 μM concentration
Description: • 1) It appears that Acarbose acts principally by inhibiting human pancreatic α-amylase (HPA) and the breakdown of starch.

[8] = Stability on storage in aqueous solution; type: physicochemical
[9] = system: sucrase; settings: cited from earlier work
[10] = read-out: Ki PPA (Porcine pancreatic α-amylase)
[11] = read-out: Ki AMY1 (Barley α-amylase)

Structure (SMILES): O=S(=O)([O-])O[C@@H](CO)[C@H](O)C[S@+]1C[C@@H](O)[C@H](O)[C@H]1CO
Ki [1, 10]: 10 µM
Ki [2]: 75 µM
Ki [3]: 1710 µM
Ki [4, 11]: 15 µM

Structure (SMILES): O=S(=O)(O)O[C@H](CO)[C@@H](O)CN1C[C@H](O)[C@@H](O)[C@@H]1CO
Ki [1, 10]: > 5000 µM
Ki [2]: 400 µM
Ki ([3]; read-out: Ki GA (Glucoamylase)): > 8000 µM
Ki [4, 11]: > 5000 µM

Structure (SMILES): O=S(=O)([O-])O[C@@H](CO)[C@H](O)C[Se@+]1C[C@@H](O)[C@H](O)[C@H]1CO
Ki [1]: > 5000 µM
Ki [2]: > 5000 µM
Ki [4]: > 5000 µM
Ki MGA (Human intestinal maltase glucoamylase) [5]: nM

Ki [2]: > 5000 µM
Structure (SMILES): O=S(=O)([O-])O[C@H](CO)[C@@H](O)C[S@@+]1C[C@@H](O)[C@H](O)[C@@H](O)C1

Ki [2]: > 5000 µM
Ki MGA (Human intestinal maltase glucoamylase) [5]: mM
Structure (SMILES): O=S(=O)([O-])O[C@H](CO)[C@@H](O)C[S@+]1C[C@@H](O)[C@H](O)[C@@H](O)C1

Ki [2]: > 5000 µM
Structure (SMILES): O=S(=O)([O-])O[C@H](CO)[C@@H](O)C[Se+]1C[C@@H](O)[C@H](O)[C@@H](O)C1 (some centres unmarked)

Structure (SMILES): O=S(=O)([O-])OC(CO)C(O)C[Se+]1CC(O)C(O)C1CO [Blintol, 1,4-Dideoxy-1,4-[[(2S,3S)-2,4-dihydroxy-3-(sulfooxy)butyl]episelenoniumylidene]-D-arabinitol Inner Salt]
time at which insulin values were different from basal [6]: 15 min
time at which plasma glucose returned to basal [6]: 60 min
15 minute glucose excursion from basal ([6]; mean ± SE, n=6): 29.3 ± 6.5 mg/dL
decrease of the 90 minute insulin AUC [6]: 53%
percent inhibition of maltase activity [7]: 50%
IC50 [5]: 0.2 µM

stability of the 3′-sulfate ester on storage ([8]; D2O/NaOD at pH>10, 2 days at ambient temperature): completely hydrolyzed
Structure (SMILES): O=S(=O)(O)O[C@H](CO)[C@@H](O)CN1C[C@H](O)[C@@H](O)[C@H](O)[C@H]1CO [Compound 67b, 1,5-Dideoxy-1,5-[[N-(2R,RS)-2,4-dihydroxy-3-(sulfooxy)-butyl]iminoonium]-D-glucitol]

stability on storage in aqueous solution ([8]; aqueous solution, several days at ambient temperature): unchanged
Structure (SMILES): O=S(=O)([O-])O[C@H]1[C@H](O)C(O)O[C@@H]1C[S@+]1C[C@@H](O)[C@H](O)[C@H]1CO (stereo partly drawn) [Compound 101, 3-O-sulfoxy-5-deoxy-5-[1,4-dideoxy-1,4-episufoniumylidene-D-arabinitol]-α/β-D-arabinose inner salt]

Structure (SMILES): O=S(=O)([O-])O[C@@H]([C@H](O)[C@H](O)[C@@H](O)CO)[C@H](O)C[S+]1C[C@@H](O)[C@H](O)[C@H]1CO (some centres unmarked) [Kotalanol]
inhibitory activity against sucrase (in words) [9]: more potent inhibitory activity against sucrase than Salicinol and Acarbose

Structure (SMILES): O=S(=O)([O-])OC(CO)C(O)C[S+]1CC(O)C(O)C1CO [Salacinol, 1,4-Dideoxy-1,4-[[(2S,3S)-2,4-dihydroxy-3-(sulfooxy)butyl]-episulfoniumylidene]-D-arabinitol Inner Salt, reference compound]
Ki ([1]; amylose DP17, pH 6.9, 37° C., read-out: Ki value, PPA): 10 ± 2 µM
plasma glucose profile (in words) [6]: significantly lower post-prandial plasma glucose
plasma insulin profile (in words) [6]: significantly lower post-prandial plasma glucose and insulin concentrations
time at which insulin values were different from basal [6]: 15 min
time at which plasma glucose returned to basal [6]: 60 min
glucose Area Under the Curve, 0-90 minutes (in words) ([6]; excursion above basal): slightly lower 90 minute AUC's than Acarbose
decrease of the 90 minute insulin AUC [6]: 65%
inhibition of HPA (in words) [2]: inhibits both HPA and MGA
Ki [3]: 1700 µM
Ki ([4]; amylose DP17, pH 5.5, 37° C., read-out: Ki value, AMY1): 15 ± 1 µM
percent inhibition of maltase activity [7]: 13%
inhibition of MGA (in words) [5]: inhibits both HPA and MGA
inhibition at 5 µM ([5]; read-out: percent inhibition of the breakdown of maltose): 60%
